Source: PubChem BioAssay AID1918998 (Molecular Pharmacology Branch, DTP, NCI, 2023)

System: 521955-158-R2-J5-PDC complex spheroid growth
Experiment: Anticancer human tumor 521955-158-R2-J5-PDC patient-derived pancreatic carcinoma cell line growth inhibition [AhR]
Conditions: for IC50: curve of first compound; for viability, T/C: stronger effect = lower value
In short: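 Agents were dosed in half-log steps down from roughly clinical Cmax, or from 10 microM where Cmax was unknown, alone and with AhR antagonists. Read-out: percent test/control growth of tumor spheroids containing HUVEC and MSC stromal cells.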

[1] = second compound 0.1 µM, first compound 0.00316 µM
[2] = second compound 0.1 µM, first compound 0.01 µM
[3] = second compound 0.1 µM, first compound 0.0316 µM
[4] = second compound 0.1 µM, first compound 0.1 µM
[5] = second compound 0.316 µM, first compound 0.00316 µM
[6] = second compound 0.316 µM, first compound 0.01 µM
[7] = second compound 0.316 µM, first compound 0.0316 µM
[8] = second compound 0.316 µM, first compound 0.1 µM
[9] = second compound 1 µM, first compound 0.00316 µM
[10] = second compound 1 µM, first compound 0.01 µM
[11] = second compound 1 µM, first compound 0.0316 µM
[12] = second compound 1 µM, first compound 0.1 µM
[13] = second compound 3.16 µM, first compound 0.00316 µM
[14] = second compound 3.16 µM, first compound 0.01 µM
[15] = second compound 3.16 µM, first compound 0.0316 µM
[16] = second compound 3.16 µM, first compound 0.1 µM
[17] = second compound 10 µM, first compound 0.00316 µM
[18] = second compound 10 µM, first compound 0.01 µM
[19] = second compound 10 µM, first compound 0.0316 µM
[20] = second compound 10 µM, first compound 0.1 µM
[21] = second compound 0.1 µM, first compound 0.316 µM
[22] = second compound 0.1 µM, first compound 1 µM
[23] = second compound 0.1 µM, first compound 3.16 µM
[24] = second compound 0.1 µM, first compound 10 µM
[25] = second compound 0.316 µM, first compound 0.316 µM
[26] = second compound 0.316 µM, first compound 1 µM
[27] = second compound 0.316 µM, first compound 3.16 µM
[28] = second compound 0.316 µM, first compound 10 µM
[29] = second compound 1 µM, first compound 0.316 µM
[30] = second compound 1 µM, first compound 1 µM
[31] = second compound 1 µM, first compound 3.16 µM
[32] = second compound 1 µM, first compound 10 µM
[33] = second compound 3.16 µM, first compound 0.316 µM
[34] = second compound 3.16 µM, first compound 1 µM
[35] = second compound 3.16 µM, first compound 3.16 µM
[36] = second compound 3.16 µM, first compound 10 µM
[37] = second compound 10 µM, first compound 0.316 µM
[38] = second compound 10 µM, first compound 1 µM
[39] = second compound 10 µM, first compound 3.16 µM
[40] = second compound 10 µM, first compound 10 µM
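Throughout, for viability, T/C: spheroids mix tumor cells with HUVEC endothelium and human MSC stroma; luminescence taken as viability surrogate after a week of drug exposure.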

What does the source list for CC[C@@]1(O)C(=O)OCc2c1cc1n(c2=O)Cc2cc3c(CN(C)C)c(O)ccc3nc2-1 + Cc1ccccc1N=Nc1ccc(NC(=O)c2ccnn2C)c(C)c1?
IC50 (second compound 0.1 µM): 27.2 nM; IC50 (second compound 0.316 µM): 17.5 nM; IC50 (second compound 1 µM): 26.9 nM; IC50 (second compound 3.16 µM): 22.2 nM; IC50 (second compound 10 µM): 43.9 nM; viability, T/C (second compound 0.1 µM, first compound 0.000316 µM): 76.7%; viability, T/C (second compound 0.1 µM, first compound 0.001 µM): 79.3%; viability, T/C [1]: 89.5%; viability, T/C [2]: 78.6%; viability, T/C [3]: 45.7%; viability, T/C [4]: 23%; viability, T/C (second compound 0.316 µM, first compound 0.000316 µM): 92.1%; viability, T/C (second compound 0.316 µM, first compound 0.001 µM): 100%; viability, T/C [5]: 88.8%; viability, T/C [6]: 64.7%; viability, T/C [7]: 34.7%; viability, T/C [8]: 25.2%; viability, T/C (second compound 1 µM, first compound 0.000316 µM): 98.2%; viability, T/C (second compound 1 µM, first compound 0.001 µM): 113%; viability, T/C [9]: 114%; viability, T/C [10]: 87.8%; viability, T/C [11]: 44.6%; viability, T/C [12]: 22.9%; viability, T/C (second compound 3.16 µM, first compound 0.000316 µM): 119%; viability, T/C (second compound 3.16 µM, first compound 0.001 µM): 131%; viability, T/C [13]: 122%; viability, T/C [14]: 77.3%; viability, T/C [15]: 41.1%; viability, T/C [16]: 25.6%; viability, T/C (second compound 10 µM, first compound 0.000316 µM): 130%; viability, T/C (second compound 10 µM, first compound 0.001 µM): 122%; viability, T/C [17]: 131%; viability, T/C [18]: 107%; viability, T/C [19]: 59.9%; viability, T/C [20]: 26.3%

What does the source list for COc1cc(C2c3cc4c(cc3C(OC3OC5COC(C)OC5C(O)C3O)C3COC(=O)C23)OCO4)cc(OC)c1O (stereo not given) + Cc1ccccc1N=Nc1ccc(NC(=O)c2ccnn2C)c(C)c1?
IC50 (second compound 0.1 µM): 755 nM; IC50 (second compound 0.316 µM): 668 nM; IC50 (second compound 1 µM): 1010 nM; IC50 (second compound 3.16 µM): 880 nM; IC50 (second compound 10 µM): 1580 nM; viability, T/C [3]: 99.3%; viability, T/C [4]: 78.2%; viability, T/C [21]: 81.2%; viability, T/C [22]: 39%; viability, T/C [23]: 26%; viability, T/C [24]: 17.6%; viability, T/C [7]: 83.6%; viability, T/C [8]: 108%; viability, T/C [25]: 83.4%; viability, T/C [26]: 31.9%; viability, T/C [27]: 23.9%; viability, T/C [28]: 20%; viability, T/C [11]: 131%; viability, T/C [12]: 97.3%; viability, T/C [29]: 80%; viability, T/C [30]: 49%; viability, T/C [31]: 22.8%; viability, T/C [32]: 18.4%; viability, T/C [15]: 139%; viability, T/C [16]: 118%; viability, T/C [33]: 104%; viability, T/C [34]: 40.6%; viability, T/C [35]: 27.3%; viability, T/C [36]: 17.9%; viability, T/C [19]: 131%; viability, T/C [20]: 140%; viability, T/C [37]: 112%; viability, T/C [38]: 59.9%; viability, T/C [39]: 38.5%; viability, T/C [40]: 22.9%

COc1cccc2c1C(=O)c1c(O)c3c(c(O)c1C2=O)CC(O)(C(=O)CO)CC3OC1CC(N)C(O)C(C)O1 (stereo not given) + Cc1ccccc1N=Nc1ccc(NC(=O)c2ccnn2C)c(C)c1 was tested. Which IC50 (second compound 0.1 µM) did it give?
The IC50 was < 31.6 nM.

And the IC50 (second compound 0.316 µM)?
Its IC50 is 36.9 nM.

What about the IC50 (second compound 1 µM) of the same compound?
Its IC50 is 42.1 nM.

What about the IC50 (second compound 3.16 µM) of the same compound?
Its IC50 is < 31.6 nM.

What about the IC50 (second compound 10 µM) of the same compound?
The IC50 was 165 nM.

What about the viability, T/C [3] of the same compound?
Its viability, T/C is 40.6%.

And the viability, T/C [4]?
The viability, T/C was 34.4%.

What about the viability, T/C [21] of the same compound?
Its viability, T/C is 28.5%.

And the viability, T/C [22]?
The viability, T/C was 6.16%.

And the viability, T/C [23]?
The viability, T/C was 2.14%.

What about the viability, T/C [24] of the same compound?
The viability, T/C was 9.5%.

What about the viability, T/C [7] of the same compound?
Its viability, T/C is 53.9%.

And the viability, T/C [8]?
The viability, T/C was 33.6%.

What about the viability, T/C [25] of the same compound?
Its viability, T/C is 34%.

What about the viability, T/C [26] of the same compound?
Its viability, T/C is 7.86%.

What about the viability, T/C [27] of the same compound?
Its viability, T/C is 3.02%.

And the viability, T/C [28]?
Its viability, T/C is 11.5%.

And the viability, T/C [11]?
Its viability, T/C is 55%.

And the viability, T/C [12]?
Its viability, T/C is 34.9%.

What about the viability, T/C [29] of the same compound?
The viability, T/C was 30.1%.

And the viability, T/C [30]?
The viability, T/C was 4.75%.

What about the viability, T/C [31] of the same compound?
Its viability, T/C is 2.47%.

What about the viability, T/C [32] of the same compound?
Its viability, T/C is 11.2%.

What about the viability, T/C [15] of the same compound?
Its viability, T/C is 55.6%.

And the viability, T/C [16]?
The viability, T/C was 39.9%.

And the viability, T/C [33]?
The viability, T/C was 34.3%.

And the viability, T/C [34]?
Its viability, T/C is 6.42%.

What about the viability, T/C [35] of the same compound?
Its viability, T/C is 4.98%.

And the viability, T/C [36]?
The viability, T/C was 9.42%.

What about the viability, T/C [19] of the same compound?
Its viability, T/C is 89.7%.

And the viability, T/C [20]?
Its viability, T/C is 63%.

And the viability, T/C [37]?
Its viability, T/C is 34.4%.

What about the viability, T/C [38] of the same compound?
Its viability, T/C is 3.83%.

What about the viability, T/C [39] of the same compound?
The viability, T/C was 2.39%.

What about the viability, T/C [40] of the same compound?
Its viability, T/C is 7.28%.

Which results are given for Nc1ncn(C2CC(O)C(CO)O2)c(=O)n1 (stereo not given) + Cc1ccccc1N=Nc1ccc(NC(=O)c2ccnn2C)c(C)c1?
IC50 (second compound 0.1 µM): > 1000 nM; IC50 (second compound 0.316 µM): 811 nM; IC50 (second compound 1 µM): > 1000 nM; IC50 (second compound 3.16 µM): > 1000 nM; IC50 (second compound 10 µM): > 1000 nM; viability, T/C [1]: 79%; viability, T/C [2]: 86.1%; viability, T/C [3]: 92.4%; viability, T/C [4]: 62.6%; viability, T/C [21]: 55.5%; viability, T/C [22]: 50.7%; viability, T/C [5]: 88.5%; viability, T/C [6]: 104%; viability, T/C [7]: 86.6%; viability, T/C [8]: 83.8%; viability, T/C [25]: 61.9%; viability, T/C [26]: 47.4%; viability, T/C [9]: 90.5%; viability, T/C [10]: 126%; viability, T/C [11]: 96.6%; viability, T/C [12]: 90.2%; viability, T/C [29]: 94.2%; viability, T/C [30]: 65.4%; viability, T/C [13]: 106%; viability, T/C [14]: 120%; viability, T/C [15]: 110%; viability, T/C [16]: 88.3%; viability, T/C [33]: 104%; viability, T/C [34]: 67.1%; viability, T/C [17]: 138%; viability, T/C [18]: 147%; viability, T/C [19]: 140%; viability, T/C [20]: 127%; viability, T/C [37]: 95.2%; viability, T/C [38]: 88%
